“Also recorded” adds a separate entry of the source.
Key:
Assay type in all cases: cell-based, human
HeLa cells = experiment: Morphological changes to HeLa cells
Description: (§1) The studies on morphological changes induced by sodium butyrate (5) and But4ManNAc (1) were performed following a reported procedure (45). Briefly, HeLa cells (200,000 cells per well in a 6-well plate) were plated and allowed to form monolayers. After 24 h, the supernatant was aspirated, fresh medium (4.0 mL) was added and treated with either ethanol (20 μL (0.5%), control), 5 (5.0 mM), or 1 (250 μM). For the AD 293 (HEK) cells 2.0×10^6 cells in 10 mL of medium (100 mm tissue culture dishes) were plated and treated, immediately after plating, with either ethanol (50 μL, control), 5 (5.0 mM), or 1 (250 μM). Images were acquired at various time intervals under bright field using a Nikon Eclipse TE200 inverted microscope equipped with a DXM 1200 digital camera.

AD293 (HEK) cells = experiment: Morphological changes / toxicity in AD293 (HEK) cells
Description: as §1

p21WAF1/Cip1 promoter = experiment: Luc-p21WAF1/Cip1 luciferase reporter gene assay in AD293 (HEK) cells
Description: The plasmid Luc-p21^Cip1/WAF1 (a gift from Vogelstein Laboratory, JHMI, Baltimore, Md.) was amplified and purified utilizing a plasmid maxi kit (Cat. No. 12163. Qiagen, Valencia, Calif.) following the manufacturer's protocol. HEK cells (2.5×10^5) were seeded in 3.0 mL medium and grown in 6-well T. C. plates. Transfection was performed using lipofectamine 2000 (Cat. No. 11668-019, Invitrogen, Carlsbad, Calif.) following the protocol supplier's protocol. Cells were trypsinized 24 h after transfection and seeded at 250,000 cells per well with concentrations of 1-4 shown in FIG. 3a or 1, 5, and ManNAc plus 5 at the concentrations shown in FIG. 3c. After 72 h, the cells were trypsinized, counted and lysed in 300 μL of luciferase cell culture lysis buffer and diluted five-fold in the same buffer. Luminometry was performed utilizing the ‘Luciferase Assay System’ (Cat. No. 1500, 4550, Promega, Madison, Wis.) following supplier's protocol. Luciferase Assay Reagent (100 μL) was added to the cell lysate (20 μL) in luminometer tubes (Cat. No. 55.476, Sarstedt, Newton, N.C.) and the luminescence was measured immediately using a Berthold Sirius Luminometer. The final values were normalized relative to ethanol-treated controls and reported on a per cell basis.

p21WAF1 = experiment: Endogenous p21WAF1 assay (anti-p21WAF1 antibody, flow cytometry) in Jurkat cells
Description: Endogenous expression of p21^WAF1 was detected following a reported procedure (58) with minor modifications. Jurkat cells (5.0×10^6 cells in 10 mL medium) were incubated with either ethanol or 1 (250 μM or 5 (2.5 mM). On a daily basis, aliquots of cells (˜1.0×10^6 per sample) were taken, washed with PBS (2×1.0 mL), fixed with Reagent A (Fix and Perm Kit, Caltag Laboratories, CA, Cat. No. GAS-003) for 10 min at room temperature, washed with washing buffer (PBS containing 5.0% FBS, 0.1% NaN3), re-suspended in 95% v/v methanol and kept on ice. After 30 min, cells were again washed with washing buffer and incubated with FITC-conjugated anti-p21^WAF1 antibody (Calbiochem, San Diego, Calif., Cat. No. OP64F) at 2.0 μg/mL in Reagent B (100 μL) (Fix and Perm Kit, Caltag Laboratories) for 1.0 h at room temperature in the dark. Finally, cells were re-suspended in washing buffer (500 μL) and analyzed by flow cytometry. Three replicate samples were taken for each condition and 10,000 events were counted for each sample.

Jurkat cells = experiment: Flow cytometry analysis of cell cycle status (PI/RNase A)
Description: The cell cycle arrest induced by butyrate analogs was studied following the standard protocol (49). Briefly, Jurkat cells (2.3×10^5 cells/mL) were incubated with various concentrations of 1 (0, 25, 50, 75, 100, 150 and 200 μM); 2 (200 μM); 3 (200 μM); and 4 (200 μM) for five days. The cells were then harvested, counted, washed twice with PBS, re-suspended in PBS (500 μL), added to a cold solution of 78% aqueous ethanol (4.5 mL) using a glass Pasteur pipette and kept at 2.0° C. for at least 24 h. The fixed cells were centrifuged twice to remove the ethanol completely, re-suspended in propidium iodide (PI)/ribonuclease A (RNase A) staining buffer (BD Pharmingen, Catalog No. 550825, San Diego, Calif.) (500 μL for 1.0×10^6 cells), incubated at 37° C. for 15 min and analyzed by flow cytometry. The cellular aggregates were excluded from single cell populations using an area-width plot (FL2—PT fluorescence) for the cell cycle status determination. At least 10,000 gated events were counted for each determination.
Jurkat cells (2.5×10^5 cells/mL) were incubated with either ethanol (0.2%) or 1 (100 μM or 200 μM). Aliquots of cell suspensions were taken on day 0 and days 2-6, washed with PBS (twice) and fixed in 75% ethanol at 2.0° C. for at least 48 h. The cells were stained with PI/RNase staining buffer and analyzed by flow cytometry as given above.

caspase-3 activity = experiment: Caspase-3 activity assay in Jurkat cells; details: for increase of caspase-3 activity: 48 h
Text: Such results are consistent with those expected by the compounds herein.

[1] = tested on: sialic acid biosynthesis in Jurkat cells; experiment: Assay for total sialic acid production (periodate-resorcinol); details: three days
Description: Jurkat cells (5.0×10^6 cells in 10 mL medium) were incubated with 1-5 at various concentrations. […] The cell lysates were analyzed by using an adapted version of the periodate-resorcinol assay (36, 59) with the periodic acid oxidation step performed on ice to allow quantification of total (i.e., free monosaccharide plus glycoconjugate-bound) sialic acid. For each assay, a standard curve was obtained using N-acetylneuraminic acid (Pfanstiehl, Waukegan, Ill.) for calibration.

CCCC(=O)OC[C@H]1OC(OC(=O)CCC)[C@@H](NC(C)=O)[C@@H](OC(=O)CCC)[C@@H]1OC(=O)CCC (stereo partly drawn) [compound 1, 2-Acetylamino-2-deoxy-1,3,4,6-tetra-O-butanoyl-α,β-D-mannopyranoside]
morphological changes / differentiation of HeLa cells (HeLa cells; 3 days, 1 at 250 μM, 5 at 5.0 mM): induced differentiation of HeLa cells; also recorded: growth of extended processes | fold lower concentration for cellular responses than sodium n-butyrate (HeLa cells; HeLa cells): ~20 × | apoptosis / toxicity in AD293 cells (AD293 (HEK) cells; 2 days, 1 at 250 μM, 5 at 5.0 mM): considerable degree of apoptosis; also recorded: toxicity | fold lower concentration for cellular responses than sodium n-butyrate (AD293 (HEK) cells; AD293 cells): ~20 × | concentration level required for p21WAF1/Cip1 activation (p21WAF1/Cip1 promoter): micromolar level efficiency | gain in efficiency for 1 over 5, relative to the ~10× of the endogenous p21 assay (p21WAF1/Cip1 promoter; luc-p21WAF1/Cip reporter assay): even greater | fold lower concentration for endogenous p21WAF1/Cip1 gene activation than sodium n-butyrate (5) (p21WAF1): ~10 × | endogenous p21WAF1 levels (p21WAF1; one week, 1 at 250 μM, 5 at 2.5 mM): increased p21^WAF1 levels | cell cycle status at lower concentrations (Jurkat cells; Jurkat cells, 0-75 μM, 5 days): stepwise decrease in G0/G1 accumulation with a concomitant increase in cells at the G2/M stage | population of apoptotic cells (DNA content) (Jurkat cells; Jurkat cells, 0-200 μM, five days): dose dependent increase in population of apoptotic cells | cell cycle status, time course (Jurkat cells; Jurkat cells, 100 μM, until day 6): strong cell cycle inhibition at the G2/M stage | cell cycle status, time course (Jurkat cells; Jurkat cells, 200 μM): accumulated more rapidly at the G2/M stage | cell cycle status / apoptosis (Jurkat cells; Jurkat cells, 200 μM, 5 days): majority of cells treated with 1 appeared to be apoptotic | cells with DNA in the sub G0 range (Jurkat cells; Jurkat cells, 200 μM, day 4): substantial proportion | cells with DNA in the sub G0 range (Jurkat cells; Jurkat cells, 200 μM, day 6): almost complete | concentration above which non-viable cells (sub G0) accumulated (Jurkat cells; Jurkat cells, 5 days): exceeded 75 μM | apoptosis versus cell cycle arrest (summary) (Jurkat cells; human cancer cells): efficiently induced apoptosis | apoptosis by caspase-3 activity assay (caspase-3 activity): dose dependent apoptosis | increase of caspase-3 activity (caspase-3 activity; 25 μM): ~4 fold | increase of caspase-3 activity (caspase-3 activity; 50 μM): ~8 fold | increase of caspase-3 activity (caspase-3 activity; 100 μM): ~14 fold | total sialic acid [1]: large increase in total sialic acid
